The text below walks through data of patent US7795261B2, “Substituted 1-piperidin-4-yl-4-pyrrolidin-3-yl-piperazine derivatives and their use as neurokinin antagonists” (Janssen Pharmaceutica NV, priority 2002, dated 2010).

Common to all, as to type: cell-based
Assay [1] concerns the target T1, NK2 (Homo sapiens, UniProt P21452).
T1 sequence (P21452 1-398): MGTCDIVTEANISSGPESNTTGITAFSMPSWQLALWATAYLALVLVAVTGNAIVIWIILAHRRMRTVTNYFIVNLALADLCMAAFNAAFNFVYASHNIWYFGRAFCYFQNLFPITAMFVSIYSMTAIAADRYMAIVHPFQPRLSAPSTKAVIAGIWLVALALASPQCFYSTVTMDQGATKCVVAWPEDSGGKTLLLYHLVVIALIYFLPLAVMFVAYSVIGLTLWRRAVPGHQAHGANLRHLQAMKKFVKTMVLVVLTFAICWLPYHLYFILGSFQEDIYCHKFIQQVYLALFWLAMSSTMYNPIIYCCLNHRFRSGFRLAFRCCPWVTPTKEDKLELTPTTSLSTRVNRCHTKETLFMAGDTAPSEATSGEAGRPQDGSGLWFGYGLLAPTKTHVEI
Kind of assay: Signal transduction (ST), intracellular Ca++ (FLIPR), NK2. The conditions noted are these: read-out: pIC50 NK2 (converted). On the procedure:
[The procedure below names another target; the source lists this target under the same test.] This test evaluates in vitro functional NK1 antagonistic activity. For the measurements of intracellular Ca^++ concentrations the cells were grown on 96-well (black wall/transparent bottom) plates from Costar for 2 days until they reached confluence. The cells were loaded with 2 μM Fluo3 in DMEM containing 0.1% BSA and 2.5 mM probenecid for 1 h at 37° C. They were washed 3× with a Krebs buffer (140 mM NaCl, 1 mM MgCl2×6H2O, 5 mM KCl, 10 mM glucose, 5 mM HEPES; 1.25 mM CaCl2; pH 7.4) containing 2.5 mM probenecid and 0.1% BSA (Ca^++-buffer). The cells were preincubated with a concentration range of antagonists for 20 min at RT and Ca^++-signals after addition of the agonists were measured in a Fluorescence Image Plate Reader (FLIPR from Molecular Devices, Crawley, England). The peak of the Ca^++-transient was considered as the relevant signal and the mean values of corresponding wells were analysed as described below.
The sigmoidal dose response curves were analysed by computerised curve-fitting, using the GraphPad Program. […] For antagonist responses the IC50-value was calculated using non-linear regression.
The last columns indicates—without being limited therefore—for which the compounds might be most suitable. Of course, since for some neurokinin receptors no data was determined, it is obvious that these compounds might be attributed to another suitable use.

Assay [2] deals with NK1 (Homo sapiens, UniProt P25103). Kind of assay: Signal transduction (ST), intracellular Ca++ (FLIPR), NK1 antagonistic activity. The conditions noted are these: read-out: pIC50 NK1 (converted). Summed up:
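Confluent cells loaded with 2 μM Fluo3 (1 h, 37 °C, probenecid), preincubated 20 min at RT with antagonist concentration range, then agonist added. Peak Ca++ transient read by FLIPR in Krebs buffer pH 7.4; IC50 by non-linear regression.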

The target in assay [3] is T2, NK3 (Homo sapiens, UniProt P29371).
T2 sequence (P29371 1-465): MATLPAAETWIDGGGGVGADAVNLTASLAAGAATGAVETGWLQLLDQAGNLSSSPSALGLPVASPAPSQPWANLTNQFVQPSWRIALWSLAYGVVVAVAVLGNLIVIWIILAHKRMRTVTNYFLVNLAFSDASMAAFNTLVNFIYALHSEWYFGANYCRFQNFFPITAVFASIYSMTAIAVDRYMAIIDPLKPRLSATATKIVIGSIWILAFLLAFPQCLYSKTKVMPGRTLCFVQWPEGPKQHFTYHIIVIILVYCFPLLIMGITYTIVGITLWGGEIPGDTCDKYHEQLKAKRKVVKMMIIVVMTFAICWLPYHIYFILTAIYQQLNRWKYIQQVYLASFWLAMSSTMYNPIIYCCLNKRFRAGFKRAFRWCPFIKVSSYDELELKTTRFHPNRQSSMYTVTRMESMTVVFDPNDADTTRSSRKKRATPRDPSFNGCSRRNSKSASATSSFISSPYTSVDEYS
Put plainly: Signal transduction (ST), intracellular Ca++ (FLIPR), NK3. The conditions noted are these: read-out: pIC50 NK3 (converted).

Chain of NK1 (P25103 whole entry): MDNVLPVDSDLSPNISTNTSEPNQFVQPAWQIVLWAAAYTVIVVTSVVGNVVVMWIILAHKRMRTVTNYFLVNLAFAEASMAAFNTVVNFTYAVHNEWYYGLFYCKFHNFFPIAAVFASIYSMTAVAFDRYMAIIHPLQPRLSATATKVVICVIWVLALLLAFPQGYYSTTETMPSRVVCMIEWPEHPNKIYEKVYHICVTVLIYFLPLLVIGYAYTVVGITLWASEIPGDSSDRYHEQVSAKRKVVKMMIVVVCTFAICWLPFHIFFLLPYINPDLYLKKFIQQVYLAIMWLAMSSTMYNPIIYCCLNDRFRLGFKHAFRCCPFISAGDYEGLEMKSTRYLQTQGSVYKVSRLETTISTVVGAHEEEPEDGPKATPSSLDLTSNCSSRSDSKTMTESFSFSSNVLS

`O=C(c1ccoc1)N1CCC(N2CCN(C3CCN(C(=O)c4cc(C(F)(F)F)cc(C(F)(F)F)c4)C(Cc4ccccc4)C3)CC2)C1` (single isomer, unassigned) [Compound 33]: the IC50 in assay [1] was 3.98 µM; in assay [2] it was 0.0158 µM; in assay [3], 0.501 µM.

For the molecule `O=C(c1cc(CCOCc2ccccc2)cs1)N1CCC(N2CCN([C@H]3CCN(C(=O)c4cc(C(F)(F)F)cc(C(F)(F)F)c4)[C@H](Cc4ccccc4)C3)CC2)C1` (stereo partly drawn) [Compound 362], the results for the IC50 in assay [1], in assay [2] and in assay [3] were 2.51 µM, 0.126 µM and 2.51 µM, respectively.

Take `O=C(c1ccoc1)N1CCC(N2CCN([C@H]3CCN(C(=O)c4cc(C(F)(F)F)cc(C(F)(F)F)c4)[C@H](Cc4ccccc4)C3)CC2)C1` (stereo partly drawn) [Compound 34]: the IC50 in assay [1] is 3.16 µM; in assay [2], 0.02 µM; in assay [3], 0.316 µM.

In the case of `O=C(c1ccsc1)N1CCC(N2CCN(C3CCN(C(=O)c4cc(C(F)(F)F)cc(C(F)(F)F)c4)C(Cc4ccc(F)cc4)C3)CC2)C1` (stereo not drawn) [Compound 278], the IC50 in assay [1] is 3.98 µM; in assay [2], 0.0158 µM; in assay [3], 2 µM.

As for `O=C(c1c(Cl)cccc1Cl)N1CCC(N2CCN(C3CCN(C(=O)c4cc(C(F)(F)F)cc(C(F)(F)F)c4)C(Cc4ccc(F)c(F)c4)C3)CC2)C1` (stereo not drawn) [Compound 256], the IC50 in assay [1] is 1.58 µM; in assay [2], 0.0251 µM; in assay [3], 0.398 µM.

Take `CC(C)(C)C(=O)N1CCC(N2CCN(C3CCN(C(=O)c4cc(C(F)(F)F)cc(C(F)(F)F)c4)C(Cc4ccccc4)C3)CC2)C1` (stereo not drawn) [Compound 167]: the IC50 in assay [1] was 2 µM; in assay [2] it was 0.00794 µM; in assay [3], 0.631 µM.

For `Cc1onc(-c2c(Cl)cccc2Cl)c1C(=O)N1CCC(N2CCN([C@H]3CCN(C(=O)c4cc(C(F)(F)F)cc(C(F)(F)F)c4)[C@H](Cc4ccccc4)C3)CC2)C1` (stereo partly drawn) [Compound 49], the figures for the IC50 in assay [1], in assay [2] and in assay [3] were 3.16 µM, 0.0251 µM and 0.251 µM, respectively.

Regarding `O=C(c1ccoc1)N1CCC(N2CCN(C3CCN(C(=O)c4cc(C(F)(F)F)cc(C(F)(F)F)c4)C(Cc4ccc(F)c(F)c4)C3)CC2)C1` (single isomer, unassigned) [Compound 258], the values for the IC50 in assay [1], in assay [2] and in assay [3] were 0.501 µM, 0.0126 µM and 0.398 µM, respectively.

As for `O=C(c1ccoc1)N1CC[C@H](N2CCN([C@@H]3CCN(C(=O)c4cc(C(F)(F)F)cc(C(F)(F)F)c4)[C@@H](Cc4ccc(Cl)c(Cl)c4)C3)CC2)C1` [Compound 250], the IC50 in assay [1] was 6.31 µM; in assay [2] it was 0.1 µM; in assay [3], 5.01 µM.

With `Cc1nnsc1C(=O)N1CCC(N2CCN(C3CCN(C(=O)c4cc(C(F)(F)F)cc(C(F)(F)F)c4)C(Cc4ccc(F)c(F)c4)C3)CC2)C1` (single isomer, unassigned) [Compound 253], the results for the IC50 in assay [1], in assay [2] and in assay [3] were 0.398 µM, 0.00501 µM and 0.501 µM, respectively.

Regarding `O=C(C1CCOC1)N1CCC(N2CCN(C3CCN(C(=O)c4cc(C(F)(F)F)cc(C(F)(F)F)c4)C(Cc4ccc(F)c(F)c4)C3)CC2)C1` (single isomer, unassigned) [Compound 281], the IC50 in assay [1] is 3.98 µM; in assay [2] it was 0.00501 µM; in assay [3] it was 3.16 µM.

`O=C(C1CCCCC1)N1CCC(N2CCN([C@H]3CCN(C(=O)c4cc(C(F)(F)F)cc(C(F)(F)F)c4)[C@H](Cc4ccccc4)C3)CC2)C1` (stereo partly drawn) [Compound 178]: the IC50 in assay [1] is 2 µM; in assay [2], 0.01 µM; in assay [3], 0.251 µM.

As for `Cc1cc(C(=O)N2CCC(N3CCN([C@H]4CCN(C(=O)c5cc(C(F)(F)F)cc(C(F)(F)F)c5)[C@H](Cc5ccccc5)C4)CC3)C2)n(C)n1` (stereo partly drawn) [Compound 26], the IC50 is 1.58 µM in assay [1], 0.01 µM in assay [2] and 0.158 µM in assay [3].

Turning to `O=C(c1ccc(CCO)s1)N1CCC(N2CCN(C3CCN(C(=O)c4cc(C(F)(F)F)cc(C(F)(F)F)c4)C(Cc4ccccc4)C3)CC2)C1` (stereo not drawn) [Compound 359], the values for the IC50 in assay [1], in assay [2] and in assay [3] were 2.51 µM, 0.0126 µM and 2 µM, respectively.

With `O=C(C1CCCCC1)N1CC[C@H](N2CCN([C@H]3CCN(C(=O)c4cc(C(F)(F)F)cc(C(F)(F)F)c4)[C@H](Cc4ccc(Cl)c(Cl)c4)C3)CC2)C1` [Compound 314], the IC50 in assay [1] is 1.26 µM; in assay [2], 0.0158 µM; in assay [3], 0.501 µM.

Regarding `O=C(C1CCCCC1)N1CCC(N2CCN(C3CCN(C(=O)c4cc(C(F)(F)F)cc(C(F)(F)F)c4)C(Cc4ccc(F)c(F)c4)C3)CC2)C1` (single isomer, unassigned) [Compound 357], the IC50 in assay [1] was 3.16 µM; in assay [2] it was 0.01 µM; in assay [3], 0.794 µM.

As for `Cn1ccc(C(=O)N2CCC(N3CCN([C@H]4CCN(C(=O)c5cc(C(F)(F)F)cc(C(F)(F)F)c5)[C@H](Cc5ccccc5)C4)CC3)C2)c1` (stereo partly drawn) [Compound 23], the values for the IC50 in assay [1], in assay [2] and in assay [3] were 3.16 µM, 0.0316 µM and 0.501 µM, respectively.

For `O=C(c1cc(C(F)(F)F)cc(C(F)(F)F)c1)N1CC[C@H](N2CCN(C3CCN(S(=O)(=O)c4cccs4)C3)CC2)C[C@H]1Cc1ccccc1` (stereo partly drawn) [Compound 76], the IC50 in assay [1] was 1.26 µM; in assay [2], 0.02 µM; in assay [3], 0.2 µM.

With `O=C(c1ccsc1)N1CC[C@H](N2CCN([C@H]3CCN(C(=O)c4cc(C(F)(F)F)cc(C(F)(F)F)c4)[C@H](Cc4ccc(Cl)c(Cl)c4)C3)CC2)C1` [Compound 325], the IC50 in assay [1] was 0.398 µM; in assay [2] it was 0.0158 µM; in assay [3], 0.631 µM.

Take `O=C(c1ccsc1)N1CCC(N2CCN(C3CCN(C(=O)c4cc(C(F)(F)F)cc(C(F)(F)F)c4)C(Cc4ccccc4)C3)CC2)C1` (single isomer, unassigned) [Compound 40]: the results for the IC50 in assay [1], in assay [2] and in assay [3] were 2.51 µM, 0.00794 µM and 0.126 µM, respectively.

As for `O=C(c1ccco1)N1CC[C@@H](N2CCN([C@H]3CCN(C(=O)c4cc(C(F)(F)F)cc(C(F)(F)F)c4)[C@H](Cc4ccc(Cl)c(Cl)c4)C3)CC2)C1` [Compound 267], the results for the IC50 in assay [1], in assay [2] and in assay [3] were 0.631 µM, 0.00794 µM and 0.2 µM, respectively.

With `CC(C)(C)C(=O)N1CCC(N2CCN([C@@H]3CCN(C(=O)c4cc(C(F)(F)F)cc(C(F)(F)F)c4)[C@H](Cc4ccc(F)c(F)c4)C3)CC2)C1` (single isomer, unassigned) [Compound 365], the figures for the IC50 in assay [1], in assay [2] and in assay [3] were 2.51 µM, 0.00794 µM and 0.501 µM, respectively.

With `O=C(c1c[nH]c2ccccc12)N1CCC(N2CCN([C@H]3CCN(C(=O)c4cc(C(F)(F)F)cc(C(F)(F)F)c4)[C@H](Cc4ccccc4)C3)CC2)C1` (stereo partly drawn) [Compound 56], the figures for the IC50 in assay [1], in assay [2] and in assay [3] were 3.16 µM, 0.0398 µM and 0.126 µM, respectively.

Take `O=C(c1cnccn1)N1CCC(N2CCN(C3CCN(C(=O)c4cc(C(F)(F)F)cc(C(F)(F)F)c4)C(Cc4ccc(F)c(F)c4)C3)CC2)C1` (single isomer, unassigned) [Compound 259]: the values for the IC50 in assay [1], in assay [2] and in assay [3] were 2 µM, 0.0126 µM and 0.501 µM, respectively.

Regarding `O=C(c1cccs1)N1CCC(N2CCN(C3CCN(C(=O)c4cc(C(F)(F)F)cc(C(F)(F)F)c4)C(Cc4ccc(F)c(F)c4)C3)CC2)C1` (single isomer, unassigned) [Compound 232], the values for the IC50 in assay [1], in assay [2] and in assay [3] were 3.16 µM, 0.00631 µM and 0.126 µM, respectively.

Take `O=C(C1CC1)N1CC[C@H](N2CCN([C@H]3CCN(C(=O)c4cc(C(F)(F)F)cc(C(F)(F)F)c4)[C@H](Cc4ccc(Cl)c(Cl)c4)C3)CC2)C1` [Compound 312]: the IC50 in assay [1] is 1.58 µM; in assay [2], 0.00794 µM; in assay [3] it was 0.501 µM.
